Source: publication PMC9161259 (ACS Omega, 2022)
One block for each compound: values may come before it.

Legend:
[1] = tested on: A549 lung carcinoma cell line; assay: Cytotoxic assay; conditions: Homo sapiens, A549, 48 h, read-out: Cytotoxic activity IC50, A549
[2] = tested on: HuCCA-1 cholangiocarcinoma cancer cell line; assay: Cytotoxic assay; conditions: Homo sapiens, HuCC-A1, 48 h, read-out: Cytotoxic activity IC50, HuCCA-1
[3] = tested on: T47D hormone-dependent breast cancer cell line; assay: Cytotoxic assay; conditions: Homo sapiens, 48 h, read-out: Cytotoxic activity IC50, T47D
[4] = tested on: MOLT-3 lymphoblastic leukemia cell line; assay: Cytotoxic assay; conditions: for IC50: Homo sapiens, MOLT-3, 48 h, read-out: Cytotoxic activity IC50, MOLT-3
wild-type EGFR = wild-type EGFR (Homo sapiens, UniProt P00533); assay: ADP-Glo kinase assay, wild-type EGFR; type: biochemical
[5] = tested on: MDA-MB-231 hormone-independent breast cancer cell line; assay: Cytotoxic assay; conditions: Homo sapiens, MDA-MB-231, 48 h, read-out: Cytotoxic activity IC50, MDA-MB-231
L858R/T790M mutant EGFR = L858R/T790M mutant EGFR (Homo sapiens, UniProt P00533, L858R/T790M); assay: ADP-Glo kinase assay, L858R/T790M mutant EGFR; type: biochemical
Cytotoxic assay = conditions: human, MRC-5 normal embryonic lung cell line
[6] = tested on: HepG2 hepatocellular carcinoma cell line; assay: Cytotoxic assay; conditions: for IC50: Homo sapiens, HepG2, 48 h, read-out: Cytotoxic activity IC50, HepG2

Sequence of L858R/T790M mutant EGFR (P00533 25-1210 T790M/L858R): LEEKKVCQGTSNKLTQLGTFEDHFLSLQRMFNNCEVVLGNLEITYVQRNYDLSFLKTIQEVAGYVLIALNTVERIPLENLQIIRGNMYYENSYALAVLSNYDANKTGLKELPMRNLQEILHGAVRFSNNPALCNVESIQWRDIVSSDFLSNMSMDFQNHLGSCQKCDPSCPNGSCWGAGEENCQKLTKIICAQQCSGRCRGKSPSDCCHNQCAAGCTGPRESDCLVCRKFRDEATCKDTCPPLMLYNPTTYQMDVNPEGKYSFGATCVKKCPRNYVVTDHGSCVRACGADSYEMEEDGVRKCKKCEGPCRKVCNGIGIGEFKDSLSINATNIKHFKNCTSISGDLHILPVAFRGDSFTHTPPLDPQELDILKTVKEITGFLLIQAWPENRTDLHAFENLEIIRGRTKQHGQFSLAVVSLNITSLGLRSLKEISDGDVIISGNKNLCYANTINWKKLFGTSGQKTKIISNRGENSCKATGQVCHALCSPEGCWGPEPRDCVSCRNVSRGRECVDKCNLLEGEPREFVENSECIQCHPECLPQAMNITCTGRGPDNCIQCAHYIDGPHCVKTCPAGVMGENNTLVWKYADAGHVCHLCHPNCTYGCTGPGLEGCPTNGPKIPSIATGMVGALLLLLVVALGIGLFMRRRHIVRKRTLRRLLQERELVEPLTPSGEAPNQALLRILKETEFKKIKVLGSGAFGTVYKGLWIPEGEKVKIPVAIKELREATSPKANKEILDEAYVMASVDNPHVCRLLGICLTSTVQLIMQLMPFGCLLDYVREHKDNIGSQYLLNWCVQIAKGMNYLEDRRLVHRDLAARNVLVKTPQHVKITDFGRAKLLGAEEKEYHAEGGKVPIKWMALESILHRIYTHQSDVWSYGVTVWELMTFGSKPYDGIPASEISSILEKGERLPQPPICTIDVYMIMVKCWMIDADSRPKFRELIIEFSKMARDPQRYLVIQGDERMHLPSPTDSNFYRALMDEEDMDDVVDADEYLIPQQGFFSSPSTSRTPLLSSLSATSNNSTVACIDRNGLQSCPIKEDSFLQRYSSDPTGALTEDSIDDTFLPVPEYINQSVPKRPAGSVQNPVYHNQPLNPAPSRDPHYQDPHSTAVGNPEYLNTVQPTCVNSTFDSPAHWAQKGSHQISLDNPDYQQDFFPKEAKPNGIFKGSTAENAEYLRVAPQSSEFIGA
Sequence of wild-type EGFR (P00533 25-1210): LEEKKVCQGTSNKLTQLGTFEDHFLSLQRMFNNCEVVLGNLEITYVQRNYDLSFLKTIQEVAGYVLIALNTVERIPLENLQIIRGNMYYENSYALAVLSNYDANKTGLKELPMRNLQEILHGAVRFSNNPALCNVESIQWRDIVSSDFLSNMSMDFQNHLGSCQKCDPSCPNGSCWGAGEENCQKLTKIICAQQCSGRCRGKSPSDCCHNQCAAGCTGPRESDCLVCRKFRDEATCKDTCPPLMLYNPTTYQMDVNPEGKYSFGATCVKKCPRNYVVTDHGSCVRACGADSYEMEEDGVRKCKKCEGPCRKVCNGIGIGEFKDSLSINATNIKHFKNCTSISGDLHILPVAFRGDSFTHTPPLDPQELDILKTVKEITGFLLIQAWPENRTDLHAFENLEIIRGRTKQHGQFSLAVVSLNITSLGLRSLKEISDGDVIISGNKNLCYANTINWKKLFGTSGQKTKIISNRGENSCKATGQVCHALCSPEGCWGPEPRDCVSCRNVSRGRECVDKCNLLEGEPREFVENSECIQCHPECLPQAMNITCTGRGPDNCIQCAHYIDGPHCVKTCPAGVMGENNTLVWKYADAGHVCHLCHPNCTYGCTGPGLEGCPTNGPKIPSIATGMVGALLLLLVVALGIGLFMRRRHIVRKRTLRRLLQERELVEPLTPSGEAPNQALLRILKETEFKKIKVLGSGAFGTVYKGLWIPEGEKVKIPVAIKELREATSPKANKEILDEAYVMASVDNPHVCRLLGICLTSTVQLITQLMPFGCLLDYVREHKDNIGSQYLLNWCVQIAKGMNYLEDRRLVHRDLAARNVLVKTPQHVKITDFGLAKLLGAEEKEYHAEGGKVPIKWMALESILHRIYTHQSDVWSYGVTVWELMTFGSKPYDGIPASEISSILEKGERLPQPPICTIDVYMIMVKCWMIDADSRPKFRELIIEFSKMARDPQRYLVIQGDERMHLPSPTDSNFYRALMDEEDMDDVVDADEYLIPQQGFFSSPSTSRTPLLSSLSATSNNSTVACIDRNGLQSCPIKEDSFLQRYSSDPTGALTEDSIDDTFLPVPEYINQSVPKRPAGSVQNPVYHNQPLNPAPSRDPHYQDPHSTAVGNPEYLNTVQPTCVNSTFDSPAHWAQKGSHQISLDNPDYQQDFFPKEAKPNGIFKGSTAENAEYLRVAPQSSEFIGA

IC50 (wild-type EGFR): 0.00396 ± 0.00066 µM
EGFR inhibitory activity, times higher than that of erlotinib (wild-type EGFR; ratio of IC50 values, wild-type EGFR): 4 fold
IC50 (L858R/T790M mutant EGFR): > 0.1 µM
SMILES: Cc1ccc(NC2=C(Cl)C(=O)c3ccccc3C2=O)cc1 [compound 3, 2-Chloro-3-(p-tolylamino)naphthalene-1,4-dione]
IC50 [1]: > 50 µg/mL
IC50 [2]: 42.2 ± 1.96 µM
IC50 [3]: 39.5 ± 0.3 µM
IC50 [4]: 4.3 ± 0.46 µM
IC50 [5]: 10.7 ± 1.89 µM
IC50 at 48 h (Cytotoxic assay): 92.43 ± 0.02 µM
IC50 [6]: 127.4 ± 0.65 µM

SMILES: O=C1C(Cl)=C(Nc2ccc(Br)cc2)C(=O)c2ccccc21 [compound 5, 2-((4-Bromophenyl)amino)-3-chloronaphthalene-1,4-dione]
IC50 [1]: > 50 µg/mL
IC50 [2]: > 50 µg/mL
IC50 [3]: > 50 µg/mL
Cytotoxic activity IC50, MOLT-3 [4]: inactive
IC50 [4]: > 50 µg/mL
IC50 [5]: > 50 µg/mL
IC50 at 48 h (Cytotoxic assay): > 50 µg/mL
Cytotoxic activity IC50, HepG2 [6]: inactive
IC50 [6]: > 50 µg/mL

SMILES: O=C1C(Br)=C(Nc2ccccc2)C(=O)c2ccccc21 [compound 13, 2-Bromo-3-(phenylamino)naphthalene-1,4-dione]
IC50 [1]: 27.91 ± 0.05 µM
IC50 [2]: 15.6 ± 0.54 µM
IC50 [3]: 10.1 ± 0.27 µM
IC50 [4]: 2.74 ± 0.02 µM
IC50 [5]: 9.48 ± 2.17 µM
IC50 at 48 h (Cytotoxic assay): 15.3 ± 2.67 µM
IC50 [6]: 20.1 ± 0.54 µM

SMILES: COc1ccc(NC2=C(Cl)C(=O)c3ccccc3C2=O)cc1 [compound 11, 2-Chloro-3-((4-methoxyphenyl)amino)naphthalene-1,4-dione]
IC50 [1]: > 50 µg/mL
IC50 [2]: > 50 µg/mL
IC50 [3]: > 50 µg/mL
IC50 [4]: 17.6 ± 3.3 µM
IC50 [5]: 105 ± 2.72 µM
IC50 at 48 h (Cytotoxic assay): > 50 µg/mL
IC50 [6]: > 50 µg/mL

SMILES: O=C1C(Br)=C(Nc2ccc(F)cc2)C(=O)c2ccccc21 [compound 14, 2-Bromo-3-((4-fluorophenyl)amino)naphthalene-1,4-dione]
IC50 [1]: 50 ± 3 µM
IC50 [2]: 16.2 ± 1.65 µM
IC50 [3]: 28.5 ± 1 µM
IC50 [4]: 4.65 ± 0.41 µM
IC50 [5]: 7.54 ± 2.07 µM
IC50 at 48 h (Cytotoxic assay): 12.5 ± 0.74 µM
IC50 [6]: 19.1 ± 0.82 µM

IC50 (wild-type EGFR): 0.0114 ± 0.00035 µM
IC50 (L858R/T790M mutant EGFR): > 0.1 µM
SMILES: O=C1C(Cl)=C(Nc2ccc([N+](=O)[O-])cc2)C(=O)c2ccccc21 [compound 8, 2-Chloro-3-((4-nitrophenyl)amino)naphthalene-1,4-dione]
IC50 [1]: 70 ± 2.04 µM
IC50 [2]: 16.3 ± 0.98 µM
IC50 [3]: 11.7 ± 0.19 µM
IC50 [4]: 1.98 ± 0.28 µM
IC50 [5]: 11.1 ± 2.84 µM
IC50 at 48 h (Cytotoxic assay): 74.9 ± 7.21 µM
IC50 [6]: 86.1 ± 1.61 µM

SMILES: COc1cccc2c1C(=O)c1c(O)c3c(c(O)c1C2=O)C[C@@](O)(C(=O)CO)C[C@@H]3O[C@H]1C[C@H](N)[C@H](O)[C@H](C)O1 [doxorubicin, reference compound]
IC50 [1]: 0.34 ± 0.01 µM
IC50 [2]: 1.17 ± 0.05 µM
IC50 [3]: 1.04 ± 0.01 µM
IC50 [4]: 0.02 µM
IC50 [5]: 2.1 ± 0.06 µM
IC50 at 48 h (Cytotoxic assay): 2.67 ± 0.2 µM
IC50 [6]: 0.5 ± 0.04 µM

IC50 (wild-type EGFR): 0.0186 ± 0.00141 µM
IC50 (L858R/T790M mutant EGFR): > 0.1 µM
SMILES: O=C1C(Cl)=C(Nc2cccc([N+](=O)[O-])c2)C(=O)c2ccccc21 [compound 10, 2-Chloro-3-((3-nitrophenyl)amino)naphthalene-1,4-dione]
IC50 [1]: 114.1 ± 0.71 µM
IC50 [2]: 42.1 ± 0.74 µM
IC50 [3]: 19.2 ± 1.77 µM
IC50 [4]: 2.98 ± 0.25 µM
IC50 [5]: 16.2 ± 0.57 µM
IC50 at 48 h (Cytotoxic assay): 74.53 ± 0.71 µM
IC50 [6]: > 50 µg/mL

SMILES: O=C1C(Cl)=C(Nc2ccc(F)cc2)C(=O)c2ccccc21 [compound 4, 2-Chloro-3-((4-fluorophenyl)amino)naphthalene-1,4-dione]
IC50 [1]: 148 ± 2.55 µM
IC50 [2]: 58.7 ± 0.64 µM
IC50 [3]: 17.9 ± 0.76 µM
IC50 [4]: 7.45 ± 1.06 µM
IC50 [5]: 17 ± 0.2 µM
IC50 at 48 h (Cytotoxic assay): 20.2 ± 1.4 µM
IC50 [6]: 131.9 ± 1.13 µM
